The target in assay [1] is T1, Sentrin-specific protease 7 (Homo sapiens, UniProt Q9BQF6).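 Note: Luminescence-based dose-response confirmation of ultra-high-throughput screening hits, measuring inhibition of SENP7.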
T1 sequence (Q9BQF6 whole entry): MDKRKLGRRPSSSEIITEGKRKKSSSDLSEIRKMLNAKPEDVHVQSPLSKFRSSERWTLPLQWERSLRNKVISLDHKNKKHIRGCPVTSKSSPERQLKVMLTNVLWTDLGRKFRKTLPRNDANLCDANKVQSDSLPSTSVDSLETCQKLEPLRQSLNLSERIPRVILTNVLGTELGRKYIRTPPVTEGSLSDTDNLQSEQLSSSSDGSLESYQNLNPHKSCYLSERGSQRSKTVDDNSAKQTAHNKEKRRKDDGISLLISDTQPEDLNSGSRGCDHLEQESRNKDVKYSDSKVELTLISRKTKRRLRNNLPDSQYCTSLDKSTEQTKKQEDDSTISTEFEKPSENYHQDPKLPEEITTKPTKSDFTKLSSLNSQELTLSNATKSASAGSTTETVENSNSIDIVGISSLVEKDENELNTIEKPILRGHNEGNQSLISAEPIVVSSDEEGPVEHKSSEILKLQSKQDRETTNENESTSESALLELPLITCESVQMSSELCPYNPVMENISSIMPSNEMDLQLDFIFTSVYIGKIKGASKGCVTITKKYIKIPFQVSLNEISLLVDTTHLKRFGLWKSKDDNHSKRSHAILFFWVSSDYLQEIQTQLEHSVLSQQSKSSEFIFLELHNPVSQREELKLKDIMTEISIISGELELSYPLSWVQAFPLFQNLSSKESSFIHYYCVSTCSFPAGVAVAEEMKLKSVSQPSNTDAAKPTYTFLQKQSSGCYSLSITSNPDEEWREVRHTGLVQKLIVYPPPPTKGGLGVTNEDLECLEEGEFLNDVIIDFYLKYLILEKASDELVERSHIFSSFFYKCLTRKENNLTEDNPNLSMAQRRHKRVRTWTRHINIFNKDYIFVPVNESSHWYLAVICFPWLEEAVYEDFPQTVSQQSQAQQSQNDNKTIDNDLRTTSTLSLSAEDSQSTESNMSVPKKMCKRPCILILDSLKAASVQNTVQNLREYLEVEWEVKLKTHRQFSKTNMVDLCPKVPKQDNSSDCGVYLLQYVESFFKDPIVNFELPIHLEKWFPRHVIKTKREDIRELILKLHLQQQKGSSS
It is filed as functional.

In a further assay the target is T2, Caspase-6 (Homo sapiens, UniProt P55212).
T2 sequence (P55212 whole entry): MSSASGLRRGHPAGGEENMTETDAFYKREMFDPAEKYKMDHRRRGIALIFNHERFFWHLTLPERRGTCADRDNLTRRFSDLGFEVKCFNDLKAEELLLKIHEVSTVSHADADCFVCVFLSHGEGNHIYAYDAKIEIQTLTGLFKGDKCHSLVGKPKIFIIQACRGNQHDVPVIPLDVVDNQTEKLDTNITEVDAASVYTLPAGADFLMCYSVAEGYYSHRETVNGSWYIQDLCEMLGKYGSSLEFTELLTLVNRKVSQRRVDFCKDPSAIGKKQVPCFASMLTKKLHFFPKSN
The experiment in a line: inhibition of CASP6 peptide cleavage – biochemical, VEID-R110 fluorescence, cherry-pick, dose response (AID 720632).

The target of assay [2] is Peroxisome proliferator-activated receptor gamma/Nuclear receptor corepressor 2 (Homo sapiens, UniProt P37231+Q9Y618). It is filed as functional.
In assay [3] the target is Photoreceptor-specific nuclear receptor (Homo sapiens, UniProt Q9Y5X4). In kind it is functional.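 Note: potency for compounds that break the NR2E3 corepressor complex and count as activators.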
Chain of Photoreceptor-specific nuclear receptor (Q9Y5X4 whole entry): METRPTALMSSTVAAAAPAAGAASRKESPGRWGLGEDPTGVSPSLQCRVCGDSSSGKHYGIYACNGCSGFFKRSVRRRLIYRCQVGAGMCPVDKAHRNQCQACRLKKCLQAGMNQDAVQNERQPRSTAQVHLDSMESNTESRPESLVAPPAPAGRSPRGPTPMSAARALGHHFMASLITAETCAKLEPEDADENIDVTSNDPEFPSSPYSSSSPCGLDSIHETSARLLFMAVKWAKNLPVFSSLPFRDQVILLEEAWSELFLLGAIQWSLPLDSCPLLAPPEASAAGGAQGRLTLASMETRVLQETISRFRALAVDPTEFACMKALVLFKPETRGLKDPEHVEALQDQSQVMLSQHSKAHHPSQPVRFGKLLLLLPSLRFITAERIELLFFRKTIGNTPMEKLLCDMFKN
In assay [4] the target is Serine/threonine-protein kinase PLK4 (Homo sapiens, UniProt O00444). In kind it is functional.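 Note: PLK4 measured as one member of a kinome-wide kinase profiling panel.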
Chain of Serine/threonine-protein kinase PLK4 (O00444 whole entry): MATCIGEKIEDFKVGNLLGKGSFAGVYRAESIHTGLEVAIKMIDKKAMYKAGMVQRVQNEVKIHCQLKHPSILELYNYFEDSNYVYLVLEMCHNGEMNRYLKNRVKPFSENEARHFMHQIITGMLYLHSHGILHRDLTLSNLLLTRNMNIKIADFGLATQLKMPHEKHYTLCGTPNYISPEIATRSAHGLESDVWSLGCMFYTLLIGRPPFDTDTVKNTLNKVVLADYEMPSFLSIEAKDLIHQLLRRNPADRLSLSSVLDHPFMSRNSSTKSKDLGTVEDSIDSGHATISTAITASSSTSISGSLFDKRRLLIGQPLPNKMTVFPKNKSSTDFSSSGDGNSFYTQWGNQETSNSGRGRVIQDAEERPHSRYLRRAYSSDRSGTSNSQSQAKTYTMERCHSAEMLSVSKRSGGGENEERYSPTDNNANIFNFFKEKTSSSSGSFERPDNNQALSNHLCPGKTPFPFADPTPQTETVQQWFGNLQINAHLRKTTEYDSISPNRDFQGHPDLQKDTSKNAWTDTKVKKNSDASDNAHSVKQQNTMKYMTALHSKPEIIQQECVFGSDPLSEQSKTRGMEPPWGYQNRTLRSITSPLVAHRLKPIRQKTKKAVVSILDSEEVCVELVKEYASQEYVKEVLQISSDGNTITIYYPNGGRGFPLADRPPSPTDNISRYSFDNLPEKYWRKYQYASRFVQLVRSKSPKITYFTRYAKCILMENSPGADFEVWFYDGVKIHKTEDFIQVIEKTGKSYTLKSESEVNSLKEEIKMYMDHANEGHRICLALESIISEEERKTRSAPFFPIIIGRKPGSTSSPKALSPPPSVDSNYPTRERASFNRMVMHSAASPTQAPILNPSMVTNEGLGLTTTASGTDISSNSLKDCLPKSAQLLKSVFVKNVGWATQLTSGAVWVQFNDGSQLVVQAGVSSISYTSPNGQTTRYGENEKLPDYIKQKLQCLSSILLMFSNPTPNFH
A further assay has as its target SRSF protein kinase 1 (Homo sapiens, UniProt Q96SB4). It is filed as functional.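 Note: measured as one member of a kinome-wide kinase profiling panel.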
The target in assay [5] is Serine/threonine-protein kinase D2 (Homo sapiens, UniProt Q9BZL6). In kind it is functional.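 Note: measured against PRKD2 as one member of a kinome-wide kinase profiling panel.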
The target of assay [6] is Interleukin-1 receptor-associated kinase 1 (Homo sapiens, UniProt P51617). In kind it is functional.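 Note: IRAK1 tested as one member of a kinome panel.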
Assay [7] addresses Proto-oncogene tyrosine-protein kinase ROS (Homo sapiens, UniProt P08922). It is filed as functional.
Assay [8] has as its target MAP/microtubule affinity-regulating kinase 3 (Homo sapiens, UniProt P27448). In kind it is functional.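 Note: MARK3 affinity measured as one member of a kinome panel.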
The target in assay [9] is Cyclin-dependent kinase 2 (Homo sapiens, UniProt P24941). It is filed as functional.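 Note: CDK2 measured as one member of a broad kinome profiling panel.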
The target of assay [10] is Protein kinase C iota type (Homo sapiens, UniProt P41743). It is filed as functional.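 Note: measured within a kinome-wide kinase panel, PRKCI as panel member.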
A further assay has as its target Misshapen-like kinase 1 (Homo sapiens, UniProt Q8N4C8). In kind it is functional.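 Note: kinome panel screen with MINK as the panel member.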
Assay [11] deals with Dual specificity protein kinase CLK2 (Homo sapiens, UniProt P49760). In kind it is functional.
Chain of Dual specificity protein kinase CLK2 (P49760 whole entry): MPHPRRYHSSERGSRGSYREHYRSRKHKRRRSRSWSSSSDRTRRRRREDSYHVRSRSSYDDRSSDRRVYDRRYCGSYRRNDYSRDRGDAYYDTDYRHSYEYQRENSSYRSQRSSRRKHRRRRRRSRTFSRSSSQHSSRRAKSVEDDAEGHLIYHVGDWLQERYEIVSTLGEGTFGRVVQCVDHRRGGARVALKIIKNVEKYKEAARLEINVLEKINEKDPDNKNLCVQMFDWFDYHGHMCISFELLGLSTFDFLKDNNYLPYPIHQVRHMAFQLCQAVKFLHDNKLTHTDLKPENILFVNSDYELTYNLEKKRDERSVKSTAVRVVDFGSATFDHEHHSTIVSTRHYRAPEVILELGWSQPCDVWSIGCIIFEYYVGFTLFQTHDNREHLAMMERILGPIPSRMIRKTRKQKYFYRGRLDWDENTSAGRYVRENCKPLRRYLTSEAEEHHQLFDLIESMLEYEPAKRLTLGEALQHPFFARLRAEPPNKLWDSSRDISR
The target of assay [12] is Protein kinase C zeta type (Homo sapiens, UniProt Q05513). It is filed as functional.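 Note: measured as one member of a broad kinase profiling panel.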
In assay [13] the target is Mitogen-activated protein kinase 13 (Homo sapiens, UniProt O15264). In kind it is functional.
Assay [14] has as its target Fibroblast growth factor receptor 3 (Homo sapiens, UniProt P22607). It is filed as functional.
Assay [15] has as its target Tyrosine-protein kinase Fyn (Homo sapiens, UniProt P06241). In kind it is functional.
The target in assay [16] is Ribosomal protein S6 kinase alpha-3 (Homo sapiens, UniProt P51812). It is filed as functional.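 Note: measured within a kinome-wide profiling panel.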
Chain of Ribosomal protein S6 kinase alpha-3 (P51812 whole entry): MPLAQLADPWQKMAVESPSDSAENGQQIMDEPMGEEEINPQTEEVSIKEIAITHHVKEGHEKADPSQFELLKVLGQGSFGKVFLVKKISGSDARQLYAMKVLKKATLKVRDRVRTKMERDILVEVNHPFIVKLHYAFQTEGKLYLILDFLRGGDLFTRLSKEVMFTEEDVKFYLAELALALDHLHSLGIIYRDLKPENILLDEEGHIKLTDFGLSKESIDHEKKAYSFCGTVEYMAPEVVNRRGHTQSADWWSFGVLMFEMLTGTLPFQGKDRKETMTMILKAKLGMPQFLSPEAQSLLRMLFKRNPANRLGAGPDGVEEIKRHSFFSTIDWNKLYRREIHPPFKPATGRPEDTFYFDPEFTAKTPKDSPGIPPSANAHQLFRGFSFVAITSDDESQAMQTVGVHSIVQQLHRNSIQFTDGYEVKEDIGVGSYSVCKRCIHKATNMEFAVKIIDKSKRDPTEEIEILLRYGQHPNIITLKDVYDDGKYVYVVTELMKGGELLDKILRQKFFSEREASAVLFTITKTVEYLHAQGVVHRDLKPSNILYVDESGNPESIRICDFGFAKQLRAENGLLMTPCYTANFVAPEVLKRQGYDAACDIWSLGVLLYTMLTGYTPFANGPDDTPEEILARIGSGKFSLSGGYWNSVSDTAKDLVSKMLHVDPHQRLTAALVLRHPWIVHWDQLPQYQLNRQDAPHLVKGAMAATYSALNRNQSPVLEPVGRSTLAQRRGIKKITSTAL
Assay [17] addresses Serine/threonine-protein kinase Nek4 (Homo sapiens, UniProt P51957). In kind it is functional.
Assay [18] concerns the target Phosphorylase b kinase gamma catalytic chain, liver/testis isoform (Homo sapiens, UniProt P15735). In kind it is functional.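 Note: PHKG2 measured as one member of a kinome-wide kinase panel.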
The target in assay [19] is Inhibitor of nuclear factor kappa-B kinase subunit epsilon (Homo sapiens, UniProt Q14164). The experiment in a line: Navigating the Kinome. Panel member name: IKBKE. In kind it is functional.
For assay [20], the target named is Rho-associated protein kinase 2 (Homo sapiens, UniProt O75116). It is filed as functional.
Assay [21] addresses Vascular endothelial growth factor receptor 3 (Homo sapiens, UniProt P35916). In kind it is functional.
Assay [22] addresses Calcium/calmodulin-dependent protein kinase type 1 (Homo sapiens, UniProt Q14012). It is filed as functional.

Activity calls are given as the source filed them.

Chain of Serine/threonine-protein kinase Nek4 (P51957 whole entry, canonical isoform): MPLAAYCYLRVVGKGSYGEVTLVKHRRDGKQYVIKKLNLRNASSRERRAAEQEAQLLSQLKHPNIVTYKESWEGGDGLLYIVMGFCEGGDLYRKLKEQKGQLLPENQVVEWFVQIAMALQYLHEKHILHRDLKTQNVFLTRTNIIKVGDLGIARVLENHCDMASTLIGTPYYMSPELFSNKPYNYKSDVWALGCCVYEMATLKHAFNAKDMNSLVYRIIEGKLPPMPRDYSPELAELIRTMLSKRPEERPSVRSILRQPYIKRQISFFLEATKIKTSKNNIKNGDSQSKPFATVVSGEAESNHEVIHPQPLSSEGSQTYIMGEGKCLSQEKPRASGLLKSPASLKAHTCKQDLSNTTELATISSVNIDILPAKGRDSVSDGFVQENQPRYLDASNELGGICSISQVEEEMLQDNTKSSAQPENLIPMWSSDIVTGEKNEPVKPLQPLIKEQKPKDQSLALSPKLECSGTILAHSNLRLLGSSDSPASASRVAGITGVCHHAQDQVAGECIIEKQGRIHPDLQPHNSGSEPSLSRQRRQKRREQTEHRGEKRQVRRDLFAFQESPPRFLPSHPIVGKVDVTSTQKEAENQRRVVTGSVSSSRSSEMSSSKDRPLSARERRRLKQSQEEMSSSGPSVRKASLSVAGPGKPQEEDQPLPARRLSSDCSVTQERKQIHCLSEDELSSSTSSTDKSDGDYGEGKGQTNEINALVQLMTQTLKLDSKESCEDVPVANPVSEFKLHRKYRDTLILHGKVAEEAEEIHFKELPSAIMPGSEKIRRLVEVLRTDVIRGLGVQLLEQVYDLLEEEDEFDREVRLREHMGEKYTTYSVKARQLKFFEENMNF
Chain of Vascular endothelial growth factor receptor 3 (P35916 whole entry): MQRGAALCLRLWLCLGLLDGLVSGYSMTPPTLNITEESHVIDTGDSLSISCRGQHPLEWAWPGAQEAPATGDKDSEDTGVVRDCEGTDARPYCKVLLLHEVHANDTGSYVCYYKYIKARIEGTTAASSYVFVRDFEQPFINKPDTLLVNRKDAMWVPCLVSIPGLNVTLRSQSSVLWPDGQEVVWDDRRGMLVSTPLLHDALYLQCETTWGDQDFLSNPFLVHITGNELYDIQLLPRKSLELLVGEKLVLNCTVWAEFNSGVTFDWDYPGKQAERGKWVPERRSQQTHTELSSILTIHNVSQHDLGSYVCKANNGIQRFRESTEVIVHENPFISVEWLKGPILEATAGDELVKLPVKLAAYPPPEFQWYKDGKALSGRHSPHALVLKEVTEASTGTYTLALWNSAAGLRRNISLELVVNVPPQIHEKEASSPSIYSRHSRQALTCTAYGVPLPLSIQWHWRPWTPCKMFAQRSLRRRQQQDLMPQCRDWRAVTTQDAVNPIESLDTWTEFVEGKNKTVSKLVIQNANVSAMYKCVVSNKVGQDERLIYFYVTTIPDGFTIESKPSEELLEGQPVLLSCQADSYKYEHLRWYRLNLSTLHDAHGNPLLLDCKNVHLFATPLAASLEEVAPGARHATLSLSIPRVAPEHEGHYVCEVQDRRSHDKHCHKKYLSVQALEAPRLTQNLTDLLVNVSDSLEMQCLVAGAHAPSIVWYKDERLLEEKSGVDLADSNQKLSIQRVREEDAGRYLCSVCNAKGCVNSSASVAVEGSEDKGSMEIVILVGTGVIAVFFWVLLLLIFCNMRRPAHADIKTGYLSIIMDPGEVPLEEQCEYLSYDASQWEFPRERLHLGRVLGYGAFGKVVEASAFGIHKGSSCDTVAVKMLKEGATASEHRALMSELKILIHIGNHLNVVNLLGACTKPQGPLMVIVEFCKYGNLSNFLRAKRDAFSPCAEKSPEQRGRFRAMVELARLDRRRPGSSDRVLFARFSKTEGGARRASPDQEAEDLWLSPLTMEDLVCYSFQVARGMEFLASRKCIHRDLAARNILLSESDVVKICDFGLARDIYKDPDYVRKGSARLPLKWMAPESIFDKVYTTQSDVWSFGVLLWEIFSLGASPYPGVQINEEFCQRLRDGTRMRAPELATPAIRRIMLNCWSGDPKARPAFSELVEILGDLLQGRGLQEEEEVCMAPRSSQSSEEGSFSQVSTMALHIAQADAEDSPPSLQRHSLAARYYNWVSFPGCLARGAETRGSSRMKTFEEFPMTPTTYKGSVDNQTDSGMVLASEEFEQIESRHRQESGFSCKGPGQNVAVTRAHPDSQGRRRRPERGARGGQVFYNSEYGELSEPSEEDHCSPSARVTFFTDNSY

For the molecule `Cc1c(NC(=O)C(C)OC(=O)c2ccc([N+](=O)[O-])s2)c(=O)n(-c2ccccc2)n1C` (stereo not given), the IC50 in assay [1] was 10.4 µM (active). Moreover, the AC50 on Caspase-6 is 4.82 µM (active).
With `COc1cc(Br)c(C(=O)c2nccc3cc(OC)c(OC)cc23)cc1OC`, the half-maximal inhibitory concentration (IC50) in [2] and in assay [3] was > 39.8 µM (not active) throughout.
For the molecule `CC(N)C1CCC(C(=O)Nc2ccnc3[nH]ccc23)CC1` (stereo not given), the Ki was 1.58 µM (active) in assay [4]; > 7.94 µM (inactive) at SRSF protein kinase 1; 1 µM (active) in assay [5]; 7.94 µM (active) in [6]; > 2 µM (inactive) in [7]; > 5.01 µM (inactive) in assay [8]. Also, the Ki is 1 µM (active) in assay [9]; 3.98 µM (active) in [10]; 3.16 µM (active) at Misshapen-like kinase 1; 1.26 µM (active) in [11]; > 7.94 µM (inactive) in [12]; > 7.94 µM (inactive) in assay [13]. In addition, the Ki in assay [14] is > 2 µM (inactive); in [15], > 3.98 µM (inactive); in [16], 1.26 µM (active); in [17], > 6.31 µM (inactive); in [18], > 5.01 µM (inactive); in assay [19], > 3.16 µM (inactive). The Ki in assay [20] was 0.0251 µM (active); in assay [21], > 6.31 µM (inactive); in assay [22], > 1.58 µM (inactive).

Usually IC50 stands for the midpoint of a concentration-inhibition curve. The AC50 is the concentration at which the activity in the assay is half-maximal. By Ki is commonly meant the equilibrium dissociation constant of an inhibitor or competing ligand from its target.

The values are drawn from ChEMBL document CHEMBL1201862, “PubChem BioAssay data set” (2004).
